The supplement of paper PMC10307832

What was measured:
Assay in all cases: relative viability (nuclei count vs DMSO), 5 days (fraction); higher = more cells survive
[1] = compound: C[C@]1(c2nc3c(C(N)=O)cccc3[nH]2)CCCN1 [Veliparib] + CS(=O)(=O)CCNCc1ccc(-c2ccc3ncnc(Nc4ccc(OCc5cccc(F)c5)c(Cl)c4)c3c2)o1 [Lapatinib] (partner 2 µM)
Procedure, shortened: (§1)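 Lung cancer cell lines in 1536-well plates were dosed by pin tool the day after seeding, either with one drug alone or with a fixed anchor-drug dose plus five library-drug doses (not always all listed) in √10 steps. After 5 days, cells were fixed and their nuclei stained in one step (final 0.05% Triton X-100, 1% formaldehyde, 1 ug/ml Hoechst), then counted on 4× images. Relative viability is the nuclei count in treated wells divided by that in vehicle wells. Values are medians of duplicate plates.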

[2] = compound: COC1=CC=C(C=C1)CN2C=CC3=C2C=C(C=C3)C(=O)NO + Cc1nc(Nc2ncc(C(=O)Nc3c(C)cccc3Cl)s2)cc(N2CCN(CCO)CC2)n1 [Dasatinib] (partner 0.075 µM)
Procedure, shortened: as §1

[3] = compound: COC1=CC=C(C=C1)CN2C=CC3=C2C=C(C=C3)C(=O)NO + CC(C)C[C@H](NC(=O)[C@H](Cc1ccccc1)NC(=O)c1cnccn1)B(O)O [Bortezomib] (partner 0.002 µM)
Procedure, shortened: as §1

[4] = compound: COC1=CC=C(C=C1)CN2C=CC3=C2C=C(C=C3)C(=O)NO + CCNC(=O)c1noc(-c2cc(C(C)C)c(O)cc2O)c1-c1ccc(CN2CCOCC2)cc1 [Luminespib] (partner 0.01 µM)
Procedure, shortened: as §1

## SW 1573
[1]; first compound 0.02 µM
  relative viability: 1.04
[1]; first compound 0.06325 µM
  relative viability: 1.02
[1]; first compound 0.2 µM
  relative viability: 0.929
[1]; first compound 0.6325 µM
  relative viability: 1.05
[1]; first compound 2 µM
  relative viability: 1.04
[2]; first compound 0.253 µM
  relative viability: 0.545
[2]; first compound 0.8 µM
  relative viability: 0.702
[2]; first compound 2.53 µM
  relative viability: 0.561
[2]; first compound 8 µM
  relative viability: 0.322
[3]; first compound 0.253 µM
  relative viability: 1.18
[3]; first compound 0.8 µM
  relative viability: 1.15
[3]; first compound 2.53 µM
  relative viability: 1.13
[3]; first compound 8 µM
  relative viability: 0.906
[4]; first compound 0.253 µM
  relative viability: 0.522
[4]; first compound 0.8 µM
  relative viability: 0.279
[4]; first compound 2.53 µM
  relative viability: 0.298
[4]; first compound 8 µM
  relative viability: 0.491
